For data set [1], the system named is pregnant DOCA+saline (PDS) rats. As to the kind of experiment: Rat model of preeclampsia (pregnant DOCA+saline rats), RBG given daily from day 4 of pregnancy. In kind it is in vivo, Sprague-Dawley rats. Conditions: RBG 15 μg/kg/min daily given to PDS rats (data not shown).
Data set [2] concerns "preeclamptic (PDS)" rats. Conditions: RBG given when the disorder was established (Vu et al. 2006); cited from earlier work.
The subject of data set [3] is normal pregnant rats. The experiment in a line: Normal pregnant rats given RBG daily from day 4 of pregnancy (NPR). It is filed as in vivo, Sprague-Dawley rats. How it is done: Female Sprague-Dawley rats (200-250 g) were obtained from Charles River Laboratories (Wilmington, Mass.) and housed in the animal facility. They were allowed free access to standard rat chow and tap water. Animal care was conducted in accordance with institutional guidelines. The rats were acclimatized for 1 week prior to being studied. The animals were mated with male Sprague-Dawley rats (Charles River Laboratories, Wilmington, Mass.) weighing 275-300 g. Pregnancy was confirmed by the presence of vaginal plugs or by examination of vaginal smears. The pregnant females were then isolated from the males. Four groups of animals were studied: normal pregnant (NP) rats given tap water ad libitum (n=10), pregnant DOCA+saline (PDS) animals (n=8) injected initially with 12.5 mg of DOCA in a depot form intraperitoneally followed by 6.5 mg on a weekly basis and whose drinking water was replaced with 0.9% saline; […] (NPR rats, n=5); and, pregnant DOCA+saline+RBG (PDSR) animals (n=8) given daily injections of RBG in a dose of 30 micrograms per kilogram body weight per day intraperitoneally beginning on day 4 of pregnancy in addition to treatment with DOCA+saline. RBG was obtained from ChromaDex (Santa Ana, Calif.) and dissolved in dimethyl sulfoxide (DMSO). Systolic blood pressure (BP) was measured by the tail-cuff method (IITC Inc., LifeScience Instruments, model 59). For each BP value reported, 3-4 readings were performed when the BP had stabilized and the mean of these values was calculated. The measurements were obtained at the following time points: prior to pregnancy (baseline), at 1-4 days, 4-7 days, 6-9 days, 8-11 days, 11-14 days, 13-16 days, 15-18 days and 18-21 days of pregnancy. At 18-21 days of pregnancy, 24-hr urine was collected in the absence of food (this was done to eliminate contamination of the urinary protein determination by any fallen food particles). Each animal was housed separately in a metabolic cage. The rats were sacrificed at 18-21 days of pregnancy and blood was drawn. The pups were counted and inspected for malformations. The 24-hr protein excretion was measured using the pyrogallol red method (Total protein Kit, Micro Pyrogallol Red Method, Sigma).
Creatinine was measured in the blood and urine on a Nova 16 Analyzer (Waltham, Mass.) and the creatinine clearance was calculated. Hematocrit was measured using a StatSpin MP Multipurpose Centrifuge (Norwood, Mass.). Statistics were performed using analysis of variance (ANOVA) and Tukey's post-hoc test.
Blood pressure results for four groups of experimental animals obtained at various time periods during gestation: NP=normal pregnant rats; PDS=pregnant animals given saline in their drinking water and injected weekly with DOCA; PDSR=rats in whom resibufogenin 30 μg/kg/day) was injected at the onset of pregnancy along with DOCA and the provision of saline as drinking water; NPR=normal pregnant animals injected daily with resibufogenin 30 μg/kg/day. See text for statistical analyses.

In data set [4] the test system is pregnant DOCA+saline (PDS) rats. The experiment in a line: Rat model of preeclampsia (pregnant DOCA+saline rats), RBG given daily from day 4 of pregnancy. It is filed as in vivo, Sprague-Dawley rats. The text has this:
In an attempt to reproduce this situation, a rat model was developed and employed in which pregnant animals are given weekly injections of the powerful mineralocorticoid desoxycorticosterone acetate (DOCA) and whose drinking water is replaced with saline Ianosi-Irimie M, Vu H V, Whitbred J M, et al. A rat model of preeclampsia. Clin Exp Hypertens 2005; 8:605-17. These animals develop characteristic findings of human preeclampsia including hypertension, proteinuria, excessive body weight gain and IUGR. In addition, associated with their experimental condition, they excrete increased amounts of the bufodienolide, marinobufagenin (MBG) Vu H V, Ianosi-Irimie M R, Pridjian C A, et al. Involvement of marinobufagenin in a rat model of human preeclampsia. Am J NephroI 2005; 25:520-8. MBG is a cardiotonic steroid which has vasoconstrictor, natriuretic and cardiac inotropic properties Schoner W. Endogenous cardiac glycosides, a new class of steroid hormones. Eur J Biochem 2002; 269:2440-8. Furthermore, the increased urinary excretion of this compound precedes the development of hypertension and proteinuria Vu H V, Ianosi-Irimie M R, Pridjian C A, et al. Involvement of marinobufagenin in a rat model of human preeclampsia. Am J NephroI 2005; 25:520-8. […] Therefore, the purpose of the study which is presented in this communication was to determine if intervention early in pregnancy would have more beneficial effects on IUGR than the administration of RBG at a time when the rodent disorder was already established.
Female Sprague-Dawley rats (200-250 g) were obtained from Charles River Laboratories (Wilmington, Mass.) and housed in the animal facility. They were allowed free access to standard rat chow and tap water. Animal care was conducted in accordance with institutional guidelines. The rats were acclimatized for 1 week prior to being studied. The animals were mated with male Sprague-Dawley rats (Charles River Laboratories, Wilmington, Mass.) weighing 275-300 g. Pregnancy was confirmed by the presence of vaginal plugs or by examination of vaginal smears. The pregnant females were then isolated from the males. Four groups of animals were studied: normal pregnant (NP) rats given tap water ad libitum (n=10), pregnant DOCA+saline (PDS) animals (n=8) injected initially with 12.5 mg of DOCA in a depot form intraperitoneally followed by 6.5 mg on a weekly basis and whose drinking water was replaced with 0.9% saline; normal pregnant rats given RBG by daily injection in a dose of 30 micrograms per kilogram body weight per day intraperitoneally beginning on day 4 of pregnancy (NPR rats, n=5); and, pregnant DOCA+saline+RBG (PDSR) animals (n=8) given daily injections of RBG in a dose of 30 micrograms per kilogram body weight per day intraperitoneally beginning on day 4 of pregnancy in addition to treatment with DOCA+saline. RBG was obtained from ChromaDex (Santa Ana, Calif.) and dissolved in dimethyl sulfoxide (DMSO). Systolic blood pressure (BP) was measured by the tail-cuff method (IITC Inc., LifeScience Instruments, model 59). For each BP value reported, 3-4 readings were performed when the BP had stabilized and the mean of these values was calculated. The measurements were obtained at the following time points: prior to pregnancy (baseline), at 1-4 days, 4-7 days, 6-9 days, 8-11 days, 11-14 days, 13-16 days, 15-18 days and 18-21 days of pregnancy. At 18-21 days of pregnancy, 24-hr urine was collected in the absence of food (this was done to eliminate contamination of the urinary protein determination by any fallen food particles). Each animal was housed separately in a metabolic cage. The rats were sacrificed at 18-21 days of pregnancy and blood was drawn. The pups were counted and inspected for malformations. The 24-hr protein excretion was measured using the pyrogallol red method (Total protein Kit, Micro Pyrogallol Red Method, Sigma). […]

[5] abbreviates: NPR rats, RBG 30 micrograms/kg/day i.p., 18-21 days.
[6] abbreviates: PDSR rats, RBG 30 micrograms/kg/day i.p., 18-21 days.

Structures are written as SMILES.

For the compound `C[C@]12CC[C@H](O)C[C@H]1CC[C@@H]1[C@@H]2CC[C@]2(C)[C@@H](c3ccc(=O)oc3)C[C@H]3O[C@]132` [RBG, resibufogenin], in data set [1], the “Prevention of hypertension at lower dose” value is “failed to prevent hypertension”. The Hypertension and proteinuria result in data set [2] is recorded as “could be corrected”. In addition, in data set [2], the IUGR entry was “trend toward improvement”. Moreover, the “Mean systolic blood pressure (tail-cuff), baseline” value amounted to 104±5 mmHg in data set [3] (NPR rats (n=5), prior to pregnancy (baseline)) and 105±5 mmHg in data set [4] (PDSR rats (n=8), prior to pregnancy (baseline)). Besides, the “CCR (creatinine clearance)” value came to 1.20 ± 0.49 mL/min in data set [3] (setting [5]) and 1.07 ± 0.29 mL/min in data set [4] (setting [6]). The Hematocrit in data set [3] (setting [5]) is listed as 0.38±0.01; in data set [4] (setting [6]), 0.33±0.02. Also, the “Protein Excretion (24-hr urine)” value in data set [3] (setting [5]) turned out to be 4.6±0.8 mg/24 hr; in data set [4] (setting [6]), 2.5±1.1 mg/24 hr. Also, the “Pups (average number of pups)” value in data set [3] (NPR rats, RBG 30 micrograms/kg/day i.p., sacrifice at 18-21 days) is recorded as 11.8±1.6; in data set [4] (PDSR rats, RBG 30 micrograms/kg/day i.p., sacrifice at 18-21 days) it was 14.6±1.3. Besides, the “Mean systolic blood pressure (tail-cuff), final” value in data set [3] (NPR rats: RBG 30 micrograms/kg/day i.p. from day 4, 18-21 days of pregnancy) worked out at 125±6 mmHg; in data set [4] (PDSR rats: DOCA+saline + RBG 30 micrograms/kg/day i.p. from day 4, 18-21 days of pregnancy), 87±6 mmHg. Further, the “Effect on blood pressure at lower dose” value in data set [3] (RBG 15 μg/kg/min daily, animal group not clearly stated (data not shown)) is recorded as “did increase blood pressure”. Also, the “Agonist effect on blood pressure” value in data set [3] (given alone to normal pregnant animals) was “causes modest hypertension”. For the same compound, the “Prevention of hypertension, proteinuria and intrauterine growth restriction (summary)” value in data set [4] (early administration in gestation) is “prevent hypertension, proteinuria and intrauterine growth restriction”.

The values are drawn from patent publication US8048868B1, “Method of preventing preeclampsia” (Scott & White Healthcare, priority 2008, dated 2011).
